Source: the NIST ThermoML archive (doi:10.1016/j.fluid.2011.09.011)
Numbers after ± are expanded uncertainties.

Conditions: 298.15 K; 101.33 kPa; Liquid; Vibrating tube method

mass density | Structure (SMILES)
1203.76 ± 7.9 kg/m3 | CCCCn1cc[n+](C)c1.F[B-](F)(F)F [1-butyl-3-methylimidazolium tetrafluoroborate]
1236.55 ± 8.3 kg/m3 | CCOS(=O)(=O)[O-].CCn1cc[n+](C)c1 [1-ethyl-3-methylimidazolium ethyl sulfate]
